Experimental data taken from US11324738B2, “Muscarinic agonists” (Heptares Therapeutics Limited, priority 2015, dated 2022).

Experiments:
Type in all cases: cell-based
[1] = target: T1, human muscarinic M1 receptor (Homo sapiens, UniProt P11229); assay: Alphascreen Surefire phospho-ERK1/2 functional assay, CHO cells expressing M1; details: for Emax: CHO, read-out: % Emax cf. ACh, M1; for EC50: agonist, CHO cells, phospho-ERK1/2, read-out: pEC50 M1 (converted)
T1 construct: expressed in transfected cells
T1 sequence (P11229 1-460): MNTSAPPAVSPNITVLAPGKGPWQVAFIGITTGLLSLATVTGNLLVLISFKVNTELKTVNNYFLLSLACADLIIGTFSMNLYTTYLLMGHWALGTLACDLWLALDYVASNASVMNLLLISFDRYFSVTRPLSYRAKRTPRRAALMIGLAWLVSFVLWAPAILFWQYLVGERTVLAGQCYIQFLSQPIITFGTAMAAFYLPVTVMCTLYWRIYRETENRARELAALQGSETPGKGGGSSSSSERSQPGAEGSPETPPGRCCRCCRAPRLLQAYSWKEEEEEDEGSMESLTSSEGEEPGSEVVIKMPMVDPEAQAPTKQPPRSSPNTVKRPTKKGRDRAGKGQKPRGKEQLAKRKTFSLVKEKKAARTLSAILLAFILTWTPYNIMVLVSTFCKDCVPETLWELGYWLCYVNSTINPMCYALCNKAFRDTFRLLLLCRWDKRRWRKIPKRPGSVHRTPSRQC
Procedure: (§1) ERK1/2 phosphorylation is a downstream consequence of both Gq/11 and Gi/o protein coupled receptor activation, making it highly suitable for the assessment of M1, M3 (Gq/11 coupled) and M2, M4 receptors (Gi/o coupled), rather than using different assay formats for different receptor subtypes. CHO cells stably expressing the human muscarinic M1, M2, M3 or M4 receptor were plated (25K/well) onto 96-well tissue culture plates in MEM-alpha+10% dialysed FBS. Once adhered, cells were serum-starved overnight. Agonist stimulation was performed by the addition of 5 μL agonist to the cells for 5 min (37° C.). Media was removed and 50 μL of lysis buffer added. After 15 min, a 4 μL sample was transferred to 384-well plate and 7 μL of detection mixture added.

[2] = target: T2, human muscarinic M4 receptor (Homo sapiens, UniProt P08173); assay: Alphascreen Surefire phospho-ERK1/2 functional assay, CHO cells expressing M4; details: for Emax: CHO, read-out: % Emax cf. ACh, M4; for EC50: agonist, CHO cells, phospho-ERK1/2, read-out: pEC50 M4 (converted)
T2 construct: expressed in transfected cells
T2 sequence (P08173 1-479): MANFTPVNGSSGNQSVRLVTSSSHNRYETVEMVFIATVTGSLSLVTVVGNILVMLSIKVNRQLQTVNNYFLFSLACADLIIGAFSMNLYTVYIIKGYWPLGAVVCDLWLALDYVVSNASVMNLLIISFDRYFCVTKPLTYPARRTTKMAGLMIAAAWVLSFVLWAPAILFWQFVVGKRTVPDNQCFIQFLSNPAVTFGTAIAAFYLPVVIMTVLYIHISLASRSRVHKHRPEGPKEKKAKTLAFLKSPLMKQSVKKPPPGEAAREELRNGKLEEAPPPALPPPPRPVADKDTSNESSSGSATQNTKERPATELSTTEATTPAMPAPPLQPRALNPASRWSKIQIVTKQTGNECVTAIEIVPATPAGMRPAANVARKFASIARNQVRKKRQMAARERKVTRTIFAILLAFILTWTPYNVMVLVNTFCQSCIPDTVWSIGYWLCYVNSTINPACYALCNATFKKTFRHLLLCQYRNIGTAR
Procedure: as §1

[3] = target: T3, human muscarinic M2 receptor (Homo sapiens, UniProt P08172); assay: Alphascreen Surefire phospho-ERK1/2 functional assay, CHO cells expressing M2; details: for Emax: CHO, read-out: % Emax cf. ACh, M2; for EC50: agonist, CHO cells, phospho-ERK1/2, read-out: pEC50 M2 (converted)
T3 construct: expressed in transfected cells
T3 sequence (P08172 1-466): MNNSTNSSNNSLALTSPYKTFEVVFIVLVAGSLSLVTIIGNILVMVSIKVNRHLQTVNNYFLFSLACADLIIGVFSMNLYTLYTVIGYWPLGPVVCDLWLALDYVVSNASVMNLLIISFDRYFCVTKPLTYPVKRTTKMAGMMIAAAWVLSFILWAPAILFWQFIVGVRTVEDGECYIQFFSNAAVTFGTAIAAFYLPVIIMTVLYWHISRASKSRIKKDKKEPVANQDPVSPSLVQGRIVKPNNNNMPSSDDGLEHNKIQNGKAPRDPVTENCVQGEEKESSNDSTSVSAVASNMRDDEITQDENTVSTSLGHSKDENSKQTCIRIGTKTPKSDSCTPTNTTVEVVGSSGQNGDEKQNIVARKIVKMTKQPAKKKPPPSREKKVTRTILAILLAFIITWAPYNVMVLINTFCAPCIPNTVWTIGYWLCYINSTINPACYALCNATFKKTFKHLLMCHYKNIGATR
Procedure: as §1

[4] = target: T4, human muscarinic M3 receptor (Homo sapiens, UniProt P20309); assay: Alphascreen Surefire phospho-ERK1/2 functional assay, CHO cells expressing M3; details: for Emax: CHO, read-out: % Emax cf. ACh, M3; for EC50: agonist, CHO cells, phospho-ERK1/2, read-out: pEC50 M3 (converted)
T4 construct: expressed in transfected cells
T4 sequence (P20309 whole entry): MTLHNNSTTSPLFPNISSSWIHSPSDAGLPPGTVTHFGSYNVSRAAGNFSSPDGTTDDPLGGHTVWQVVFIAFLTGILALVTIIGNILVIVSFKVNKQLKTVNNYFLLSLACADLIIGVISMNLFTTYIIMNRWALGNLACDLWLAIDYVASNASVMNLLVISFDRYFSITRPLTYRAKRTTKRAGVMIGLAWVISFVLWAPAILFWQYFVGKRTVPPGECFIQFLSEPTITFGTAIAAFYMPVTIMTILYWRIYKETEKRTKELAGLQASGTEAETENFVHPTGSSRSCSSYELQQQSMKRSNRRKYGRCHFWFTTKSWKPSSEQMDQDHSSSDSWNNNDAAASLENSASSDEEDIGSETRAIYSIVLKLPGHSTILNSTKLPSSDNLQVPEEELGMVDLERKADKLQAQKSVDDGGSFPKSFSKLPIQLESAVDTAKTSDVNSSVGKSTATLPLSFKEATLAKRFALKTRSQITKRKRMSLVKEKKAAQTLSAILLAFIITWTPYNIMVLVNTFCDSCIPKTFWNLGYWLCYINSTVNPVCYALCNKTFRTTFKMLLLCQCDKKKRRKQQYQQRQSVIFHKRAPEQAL
Procedure: as §1

Row | Compound | Emax [1] | EC50 [1] | Emax [2] | EC50 [2] | Emax [3] | EC50 [3] | Emax [4] | EC50 [4]
1 | CCOC(=O)N1CC2(CCC(N3CCC(n4cccn4)CC3)C2)C1 (racemic) [Example 2-3 (racemic), Ethyl 6-[4-(1H-pyrazol-1-yl)piperidin-1-yl]-2-azaspiro[3.4]octane-2-carboxylate] | 105% | 3.98 nM | 94% | 1 nM | 2% | > 20 µM | 5% | > 20 µM
2 | CCOC(=O)N1CC2(CCC(N3CCC(c4nccn4C)CC3)C2)C1 (racemic) [Example 2-2 (racemic), Ethyl 6-[4-(1-methyl-1H-imidazol-2-yl)piperidin-1-yl]-2-azaspiro[3.4]octane-2-carboxylate] | 7% | 501 nM | 102% | 31.6 nM | 7% | > 20 µM | 5% | > 20 µM
3 | CCOC(=O)N1CC2(CCC(N3CCC([C@@H]4CCCN4C(=O)NC)CC3)C2)C1 (mixture of isomers) [Example 2-4 (mixture of isomers), Ethyl 6-{4-[(2S)-1-(methylcarbamoyl)pyrrolidin-2-yl]piperidin-1-yl}-2-azaspiro[3.4]octane-2-carboxylate] | 39% | > 20000 nM | 56% | 3.16 nM | 4% | > 20 µM | 2% | > 20 µM
4 | CCOC(=O)N1CC2(CCC(N3CCC(N4CCC[C@@H]4c4cnco4)CC3)C2)C1 (single isomer, unassigned) [Example 2-12 (Isomer 2)] | 50% | 31.6 nM | 114% | 1 nM | 7% | > 20 µM | 5% | > 20 µM
5 | CCOC(=O)N1CC2(CCC(N3CCC(N4C(=O)CC[C@@H]4C)CC3)C2)C1 (mixture of isomers) [Example 2-5 (mixture of isomers), ethyl 6-{4-[(2S)-2-methyl-5-oxopyrrolidin-1-yl]piperidin-1-yl}-2-azaspiro[3.4]octane-2-carboxylate] | 38% | 158 nM | 36% | 12.6 nM | 6% | > 20 µM | 3% | > 20 µM
6 | CCOC(=O)N1CC2(CCC(N3CCC(N4C(=O)CC[C@H]4CC)CC3)C2)C1 (mixture of isomers) [Example 2-9 (mixture of isomers), Ethyl 6-{4-[(2R)-2-ethyl-5-oxopyrrolidin-1-yl]piperidin-1-yl}-2-azaspiro[3.4]octane-2-carboxylate] | 100% | 39.8 nM | 123% | 3.16 nM | 11% | > 20 µM | 8% | > 20 µM
7 | CCOC(=O)N1CC2(CCC(N3CCC(N4C(=O)CC[C@H]4C)CC3)C2)C1 (mixture of isomers) [Example 2-7 (mixture of isomers), Ethyl 6-{4-[(2R)-2-methyl-5-oxopyrrolidin-1-yl]piperidin-1-yl}-2-azaspiro[3.4]octane-2-carboxylate] | 71% | 39.8 nM | 69% | 3.98 nM | 9% | > 20 µM | 53% | > 20 µM
8 | CCOC(=O)N1CC2(CC(N3CCC(N4CCCC4c4ccon4)CC3)C2)C1 (racemic) [Example 1-5 (racemic), ethyl 6-{4-[2-(1,2-oxazol-3-yl)pyrrolidin-1-yl]piperidin-1-yl}-2-azaspiro[3.3]heptane-2-carboxylate] | 18% | > 20000 nM | 64% | 39.8 nM | 67% | > 20 µM | 10% | > 20 µM
9 | COC(=O)N1CC2(CCC(N3CCC(c4nccn4C)CC3)C2)C1 (racemic) [Example 2-1 (racemic)] | 42% | 126 nM | 82% | 15.8 nM | 17% | > 20 µM | 9% | > 20 µM
10 | CCOC(=O)N1CC2(CCC(N3CCC(N4CC(F)(F)C[C@@H]4CO)CC3)C2)C1 (mixture of isomers) [Example 2-10 (mixture of isomers), Ethyl 6-{4-[(2R)-4,4-difluoro-2-(hydroxymethyl)pyrrolidin-1-yl]piperidin-1-yl}-2-azaspiro[3.4]octane-2-carboxylate] | 6% | > 20000 nM | 32% | 6.31 nM |  |  |  | 

The remaining lines, values ahead:

Row | Emax [1] | EC50 [1] | Emax [2] | EC50 [2] | Emax [3] | EC50 [3] | Emax [4] | EC50 [4] | Compound
11 | 101% | 1580 nM | 117% | 158 nM |  |  |  |  | CCOC(=O)N1CC2(CC(N3CCC(N4C(=O)CC[C@H]4C)CC3)C2)C1 [Example 1-9]
12 | 12% | > 20000 nM | 49% | 39.8 nM | 10% | > 20 µM | 6% | > 20 µM | CCOC(=O)N1CC2(CC(N3CCC(N4CCC[C@@H]4c4cn(C)c(=O)o4)CC3)C2)C1 [Example 1-7, Ethyl 6-{4-[(2R)-2-(3-methyl-2-oxo-2,3-dihydro-1 ,3-oxazol-5yl)pyrrolidin-1-yl]piperidin-1-yl}-2-azaspiro[3.3]heptane-2-carboxylate]
13 | 100% | 10000 nM | 100% | 1260 nM |  |  |  |  | CCOC(=O)N1CC2(CC(N3CCC(c4nccn4C)CC3)C2)C1 [Example 1-2, Ethyl 6-[4-(1-methyl-1H-imidazol-2-yl)piperidin-1-yl]-2-azaspiro[3.3]heptane-2-carboxylate]
14 | 71% | 794 nM | 97% | 15.8 nM | 6% | > 20 µM | 7% | > 20 µM | CCOC(=O)N1CC2(CC(N3CCC([C@@H]4CCCN4C(=O)NC)CC3)C2)C1 [Example 1-4, Ethyl 6-{4-[(2S)-1-(methylcarbamoyl)pyrrolidin-2-yl]piperidin-1-yl}-2-azaspiro[3.3]heptane-2-carboxylate]
15 | 67% | 794 nM | 78% | 200 nM |  |  |  |  | CCOC(=O)N1CC2(CC(N3CCC(N4C(=O)CC[C@@H]4C)CC3)C2)C1 [Example 1-8, Ethyl 6-{4-[(2S)-2-methyl-5-oxopyrrolidin-1-yl]piperidin-1-yl}-2-azaspiro[3.3]heptane-2-carboxylate]
16 | 67% | 631 nM | 105% | 12.6 nM | 4% | > 20 µM | 16% | > 20 µM | CCOC(=O)N1CC2(CC(N3CCC(N4CCC[C@@H]4c4cnco4)CC3)C2)C1 [Example 1-6]
17 | 113% | 3160 nM | 73% | 316 nM |  |  |  |  | COC(=O)N1CC2(CC(N3CCC(c4nccn4C)CC3)C2)C1 [Example 1-1, Methyl 6-[4-(1-methyl-1H-imidazol-2-yl)piperidin-1-yl]-2-azaspiro[3.3]heptane-2-carboxylate]
